This note sets out measurements from US20220315578A1, “BRD9 BIFUNCTIONAL DEGRADERS AND THEIR METHODS OF USE” (NOVARTIS AG, priority 2019, published 2022).

The assay deals with T1, BRD9-GFP (Homo sapiens, UniProt Q9H8M2).
T1 construct: CHYSEL (2A cis-acting hydrolase element) remnant after GFP; mCherry is split off as a separate protein (C); expressed in transfected cells; host or cells: HEK293A cells (Invitrogen R70507), lentiviral transduction with pLenti6-BRD9-GFP-CHYSEL-mCherry, blasticidin selection
T1 sequence (Q9H8M2 1-597): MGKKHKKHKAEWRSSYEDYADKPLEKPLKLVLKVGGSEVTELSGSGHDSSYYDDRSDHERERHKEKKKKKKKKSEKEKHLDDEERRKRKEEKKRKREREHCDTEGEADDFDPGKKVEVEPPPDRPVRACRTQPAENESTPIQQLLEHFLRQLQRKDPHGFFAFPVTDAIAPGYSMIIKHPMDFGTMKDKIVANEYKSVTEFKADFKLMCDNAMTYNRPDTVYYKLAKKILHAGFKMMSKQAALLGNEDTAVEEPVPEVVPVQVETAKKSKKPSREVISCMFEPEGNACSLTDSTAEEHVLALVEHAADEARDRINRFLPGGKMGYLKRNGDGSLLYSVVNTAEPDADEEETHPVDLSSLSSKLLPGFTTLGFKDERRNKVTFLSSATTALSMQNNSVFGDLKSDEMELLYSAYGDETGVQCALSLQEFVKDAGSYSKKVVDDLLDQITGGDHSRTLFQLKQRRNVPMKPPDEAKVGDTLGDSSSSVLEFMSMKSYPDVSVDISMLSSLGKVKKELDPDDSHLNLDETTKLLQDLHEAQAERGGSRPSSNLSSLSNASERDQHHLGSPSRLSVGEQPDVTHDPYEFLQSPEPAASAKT
The experiment in a line: BRD9-GFP protein abundance flow cytometry assay in HEK293A cells. Type of assay: cell-based. As to conditions: HEK293A-BRD9-GFP-CHYSEL-mCherry cells; for BRD9 Deg Amax %: 24 h, % protein remaining at the concentration at which maximum degradation is seen; for DC50: 24 h at 37° C., 10-point 1:3 dilution, concentration at which 50% maximal degradation was observed. In short, it runs like this:
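HEK293A cells stably express bicistronic BRD9-GFP-CHYSEL-mCherry and received 24 h treatment at 37° C with a 10-point, 3-fold dilution series from […], in 0.1% DMSO and duplicate. Median GFP/mCherry ratio of 5,000 single cells by flow cytometry, normalized to mCherry-only cells (0%) and DMSO (100%), gave DC50 and Amax (% protein remaining).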
For orientation: A flow cytometer gives signals particle by particle.

`COc1cc(-c2cn(C)c(=O)c3cnccc23)c(OC)cc1CN1CCC(O[C@@H]2CCN(CCn3cccc(CN4CCC(=O)NC4=O)c3=O)C[C@H]2F)CC1` [Compound E2, 1-((1-(2-((3R,4R)-4-((1-(2,5-dimethoxy-4-(2-methyl-1-oxo-1,2-dihydro-2,7-naphthyridin-4-yl)benzyl)piperidin-4-yl)oxy)-3-fluoropiperidin-1-yl)ethyl)-2-oxo-1,2-dihydropyridin-3-yl)methyl)dihydropyrimidine-2,4(1H,3H)-dione]: the “BRD9 Deg Amax %” value is on record as 12.45% and it took 35 nM to reach half-maximal degradation (DC50).
Turning to `CCCCn1cc(-c2ccc(O[C@H]3CC[C@@H](OC4CCN(C(=O)c5ccc(OC)c(N6CCC(=O)NC6=O)c5)CC4)CC3)cc2)c2ccncc2c1=O` [Compound E3, 1-(5-(4-(((cis)-4-(4-(2-butyl-1-oxo-1,2-dihydro-2,7-naphthyridin-4 yl)phenoxy)cyclohexyl)oxy)piperidine-1-carbonyl)-2-methoxyphenyl)dihydropyrimidine-2,4(1H,3H)-dione], the “BRD9 Deg Amax %” value turned out to be 18.38% and the DC50 amounted to 2 nM.
`CCCCCCn1cc(-c2cc(OC)c(CCN3CCC(OC4CCN(C(=O)c5ccc(OC)c(N6CCC(=O)NC6=O)c5)CC4)CC3)c(OC)c2)c2ccncc2c1=O` [Compound E4, 1-(5-(4-((1-(4-(2-hexyl-1-oxo-1,2-dihydro-2,7-naphthyridin-4-yl)-2,6-dimethoxy-phenethyl)piperidin-4-yl)oxy)piperidine-1-carbonyl)-2-meth-oxyphenyl)dihydro-pyrimidine-2,4(1H,3H)-dione]: the “BRD9 Deg Amax %” value was 19.61% and it took 34 nM to reach half-maximal degradation (DC50).
As for `CCCn1cc(-c2ccc(CN3CC[C@@H](OC4CCN(C(=O)c5cccc(N6CCC(=O)NC6=O)c5)CC4)[C@H](F)C3)cc2)c(C)c(C)c1=O` [Compound E5, 1-(3-(4-(((3R,4R)-1-(4-(4,5-dimethyl-6-oxo-1-propyl-1,6-dihydropyridin-3-yl)benzyl)-3-fluoropiperidin-4-yl)oxy)piperidine-1-carbonyl)phenyl)dihydropyrimidine-2,4(1H,3H)-dione], the “BRD9 Deg Amax %” value amounted to 14.46% and it took 5 nM to reach half-maximal degradation (DC50).
Turning to `CCCCn1cc(-c2cc(F)c(OC3CCN(CCC4CCN(C(=O)c5ccc(OC)c(N6CCC(=O)NC6=O)c5)CC4)CC3)c(F)c2)c2ccncc2c1=O` [Compound E6, 1-(5-(4-(2-(4-(4-(2-butyl-1-oxo-1,2-dihydro-2,7-naphthyridin-4-yl)-2,6-difluorophenoxy)piperidin-1-yl)ethyl)piperidine-1-carbonyl)-2-methoxyphenyl)dihydropyrimidine-2,4(1H,3H)-dione], the “BRD9 Deg Amax %” value was 21.29% and the DC50 worked out at 9 nM.
Turning to `CCCn1cc(-c2cc(OC)c(CCN3CC[C@@H](OC4CCN(CCn5cccc(CN6CCC(=O)NC6=O)c5=O)CC4)[C@H](F)C3)c(OC)c2)c(C)c(C)c1=O` [Compound E7, 1-((1-(2-(4-(((3R,4R)-1-(4-(4,5-Dimethyl-6-oxo-1-propyl-1,6-dihydropyridin-3-yl)-2,6-dimethoxyphenethyl)-3-fluoropiperidin-4-yl)oxy)piperidin-1-yl)ethyl)-2-oxo-1,2-dihydropyridin-3-yl)methyl)dihydropyrimidine-2,4(1H,3H)-dione], the “BRD9 Deg Amax %” value is recorded as 18.57% and the DC50 is 4 nM.
With `CCCn1cc(-c2cc(F)c(CCN3CCC(OC4CCN(C(=O)c5ccc(OC)c(N6CCC(=O)NC6=O)c5)CC4)CC3)c(F)c2)c(C)c(C)c1=O` [Compound E12, 1-(5-(4-((1-(4-(4,5-dimethyl-6-oxo-1-propyl-1,6-dihydropyridin-3-yl)-2,6-difluorophenethyl)piperidin-4-yl)oxy)piperidine-1-carbonyl)-2 methoxyphenyl)dihydropyrimidine-2,4(1H,3H)-dione], the “BRD9 Deg Amax %” value is on record as 33.47% and the DC50 was found to be 30 nM.
On to `CCCCn1cc(-c2ccc(CN3CCC(OC4CCN(C(=O)c5ccc(OC)c(N6CCC(=O)NC6=O)c5)CC4)CC3)cc2)c2ccncc2c1=O` [Compound E13, 1-(5-(4-((1-(4-(2-butyl-1-oxo-1,2-dihydro-2,7-naphthyridin-4-yl)benzyl)piperidin-4-yl)oxy)piperidine-1-carbonyl)-2-meth-oxyphenyl)dihydro-pyrimidine-2,4(1H,3H)-dione], for which the “BRD9 Deg Amax %” value came out at 13.06% and the DC50 is 2 nM.
Taken in the same sequence, the figures for `CCCCn1cc(-c2cc(F)c(O[C@@H]3CCN(CCC4CCN(C(=O)c5ccc(OC)c(N6CCC(=O)NC6=O)c5)CC4)C[C@H]3F)c(F)c2)c2ccncc2c1=O` [Compound E14, 1-(5-(4-(2-((3R,4R)-4-(4-(2-butyl-1-oxo-1,2-dihydro-2,7-naphthyridin-4-yl)-2,6-difluorophenoxy)-3-fluoropiperidin-1-yl)ethyl)piperidine-1-carbonyl)-2-meth-oxyphenyl)dihydro-pyrimidine-2,4(1H,3H)-dione] were 18.10% and 1 nM.
For the molecule `CCCCCCn1cc(-c2cc(OC)c(CCN3CCC(OC4CCN(C(=O)c5ccc(F)c(N6CCC(=O)NC6=O)c5)CC4)CC3)c(OC)c2)c2ccncc2c1=O` [Compound E15, 1-(2-fluoro-5-(4-((1-(4-(2-hexyl-1-oxo-1,2-dihydro-2,7-naphthyridin-4-yl)-2,6-dimethoxyphenethyl)piperidin-4-yl)oxy)piperidine-1-carbonyl)phenyl)dihydropyrimidine-2,4(1H,3H)-dione], the “BRD9 Deg Amax %” value was 19.85% and the DC50 was 17 nM.
Turning to `CCCCn1cc(-c2ccc(O[C@H]3CCN(CC4CCN(C(=O)c5ccc(OC)c(N6CCC(=O)NC6=O)c5)CC4)C[C@@H]3F)c(F)c2)c2ccncc2c1=O` [Compound E16, 1-(5-(4-(((3S,4S)-4-(4-(2-butyl-1-oxo-1,2-dihydro-2,7-naphthyridin-4-yl)-2-fluorophenoxy)-3-fluoropiperidin-1-yl)methyl)piperidine-1-carbonyl)-2-meth-oxyphenyl)dihydro-pyrimidine-2,4(1H,3H)-dione], the “BRD9 Deg Amax %” value worked out at 16.58% and the DC50 is 1 nM.
On to `CCCCn1cc(-c2ccc(O[C@@H]3CCN(CC4CCN(CCn5cccc(CN6CCC(=O)NC6=O)c5=O)CC4)C[C@H]3F)c(F)c2)c2ccncc2c1=O` [Compound E17, 1-((1-(2-(4-(((3R,4R)-4-(4-(2-butyl-1-oxo-1,2-dihydro-2,7-naphthyridin-4-yl)-2-fluorophenoxy)-3-fluoropiperidin-1-yl)methyl)piperidin-1-yl)ethyl)-2-oxo-1,2-dihydropyridin-3-yl)methyl)dihydropyrimidine-2,4(1H,3H)-dione], for which the “BRD9 Deg Amax %” value came out at 18.79% and it took 5 nM to reach half-maximal degradation (DC50).
On the same counts, the results for `Cn1cc(-c2cc(F)c(CN3CCC(OC4CCN(CCn5cccc(CN6CCC(=O)NC6=O)c5=O)CC4)CC3)c(F)c2)c2ccncc2c1=O` [Compound E18, 1-((1-(2-(4-((1-(2,6-difluoro-4-(2-methyl-1-oxo-1,2-dihydro-2,7-naphthyridin-4-yl)benzyl)piperidin-4-yl)oxy)piperidin-1-yl)ethyl)-2-oxo-1,2-dihydropyridin-3-yl)methyl)dihydro-pyrimidine-2,4(1H,3H)-dione] are 16.66% and 19 nM.
Taken in the same sequence, the figures for `CCCCn1cc(-c2ccc(O[C@H]3CCN(CC4CCN(CCOc5ccc(C)c(N6CCC(=O)NC6=O)c5)CC4)C[C@@H]3F)c(OC)c2)c2ccncc2c1=O` [Compound E22, 1-(5-(2-(4-(((3S,4S)-4-(4-(2-butyl-1-oxo-1,2-dihydro-2,7-naphthyridin-4-yl)-2-methoxyphenoxy)-3-fluoropiperidin-1-yl)methyl)piperidin-1-yl)ethoxy)-2-methylphenyl)dihydropyrimidine-2,4(1H,3H)-dione] were 39.25% and 34 nM.
On to `CCCn1cc(-c2cc(OC)c(CCN3CCC(OC4CCN(CCn5cccc(CN6CCC(=O)NC6=O)c5=O)CC4)CC3)c(OC)c2)c(C)c(C)c1=O` [Compound E23, 1-((1-(2-(4-((1-(4-(4,5-dimethyl-6-oxo-1-propyl-1,6-dihydropyridin-3-yl)-2,6-dimethoxyphenethyl)piperidin-4-yl)oxy)piperidin-1-yl)ethyl)-2-oxo-1,2-dihydropyridin-3-yl)methyl)dihydropyrimidine-2,4(1H,3H)-dione], for which the “BRD9 Deg Amax %” value was 14.27% and the DC50 worked out at 11 nM.
As to `COc1cc(-c2cn(C)c(=O)c3cnccc23)cc(F)c1CN1CCC(OC2CCN(CCn3cccc(CN4CCC(=O)NC4=O)c3=O)CC2)CC1` [Compound E24, 1-((1-(2-(4-((1-(2-fluoro-6-methoxy-4-(2-methyl-1-oxo-1,2-dihydro-2,7-naphthyridin-4-yl)benzyl)piperidin-4-yl)oxy)piperidin-1-yl)ethyl)-2-oxo-1,2-dihydropyridin-3-yl)methyl)dihydropyrimidine-2,4(1H,3H)-dione], the “BRD9 Deg Amax %” value turned out to be 17.08% and the DC50 came out at 42 nM.

Usually DC50 stands for the midpoint of the concentration-degradation curve. Low readings indicate degradation at low concentration, high ones degradation only at high concentration.
